# How the values were obtained:
# ICR female mice = test: Acute toxicity, single oral dose in mice; settings: mouse, in vivo
# Method: The aromatic compounds of the formula (I) according to the present invention were orally administered to mice at the dose of 500 mg/kg, but no fatalities were observed over a period of one week.
# Five-week-old ICR female mice (5 mice per group) were bred for acclimation for a week. Then, the compounds of the present invention were dissolved in water, and orally administered to the mice in a single dosage (500 mg/kg).
# [1] = target: T1, angiotensin II receptor subtype 1 (AT1) (Oryctolagus cuniculus, UniProt P34976); test: Binding to receptors: angiotensin II receptor subtype 1 (AT1); design: species or system rabbits (adrenal glands); settings: rabbit adrenal glands, tracer 3H-angiotensin II
# T1 construct: receptor : from adrenal glands in rabbits; from tissue; host or cells: rabbit adrenal glands
# T1 sequence (P34976 1-359): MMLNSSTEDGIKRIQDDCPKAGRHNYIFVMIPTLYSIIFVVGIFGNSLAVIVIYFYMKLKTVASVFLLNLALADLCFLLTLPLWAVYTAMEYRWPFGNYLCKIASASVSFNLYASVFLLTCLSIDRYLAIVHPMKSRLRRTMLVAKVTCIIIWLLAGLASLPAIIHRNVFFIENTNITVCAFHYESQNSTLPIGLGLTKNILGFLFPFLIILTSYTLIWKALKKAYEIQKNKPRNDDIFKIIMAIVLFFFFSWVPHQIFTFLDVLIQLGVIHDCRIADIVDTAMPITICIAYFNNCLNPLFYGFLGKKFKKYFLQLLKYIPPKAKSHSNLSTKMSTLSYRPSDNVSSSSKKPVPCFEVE
# Method: (§1) In this Example, the affinity to the angiotensin II receptor subtype 1 or subtype 2 was evaluated by a binding assay in accordance with the method described in Biochem. Pharmacol., 33, 4057-4062 (1984).
# (§2) Specifically, the measurement of the total binding in the presence of each drug was performed as follows:
# (§3) A mixture (final volume=0.25 ml) of a drug in a given concentration (the drug was dissolved in DMSO, and diluted to a double volume with a buffer attached to a drug discovery system to prepare a sample for the assay; 0.025 ml), a tracer (0.025 ml), and receptors (0.2 ml) was incubated [in the case of the angiotensin II receptor subtype 1 (AT1), at room temperature for 3 hours, and in the case of the subtype 2 (AT2), at 37° C. for 1 hour]. Then, the reaction mixture was filtered with suction (GF/C filter was used in AT1, and GF/B filter was used in AT2). The filter papers after filtration with suction (the tracer bound to the receptors) were counted by a γ-well counter (ARC-500, Aloka). The non-specific bindings were measured by repeating the above method, except that a large excess amount of a displacer was added. The specific binding of the drug in the given concentration was calculated by subtracting the non-specific binding from the total binding, respectively.
# receptor : from adrenal glands in rabbits
# tracer : ^3 Hangiotensin II
# [2] = target: T2, angiotensin II receptor subtype 2 (AT2) (Bos taurus, UniProt G5E6F7); test: Binding to receptors: angiotensin II receptor subtype 2 (AT2); settings: bovine cerebellar cortex, tracer 125I-Tyr4-angiotensin II
# T2 construct: receptor : from cerebellar cortex in bovine; from tissue; host or cells: bovine cerebellar cortex
# T2 sequence (G5E6F7 1-362): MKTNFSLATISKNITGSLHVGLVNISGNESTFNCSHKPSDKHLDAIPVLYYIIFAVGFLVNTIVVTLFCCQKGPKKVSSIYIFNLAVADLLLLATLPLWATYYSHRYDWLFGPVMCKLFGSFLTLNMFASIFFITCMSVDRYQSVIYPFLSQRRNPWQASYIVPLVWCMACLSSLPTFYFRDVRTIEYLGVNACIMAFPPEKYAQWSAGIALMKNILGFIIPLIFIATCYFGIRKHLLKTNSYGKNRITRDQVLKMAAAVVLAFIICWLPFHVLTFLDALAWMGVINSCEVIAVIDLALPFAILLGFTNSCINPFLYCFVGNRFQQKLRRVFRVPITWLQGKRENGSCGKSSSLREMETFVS
# Method: as §1, §2, §3
# In AT1 and AT2, the percentages found to inhibit the bindings of radioactive ligands (tracer) to receptors by the drugs to be tested (IC50 value of concentration to show 50% inhibition, or binding inhibition % in 100 μM) were measured, using the drugs to be tested and control drugs in the given concentration.
# receptor : from cerebellar cortex in bovine
# tracer : ^125 ITyr^4angiotensin II
# control drug : angiotensin II (human)
# (displacer) : angiotensin II (human)
# [3] = system: kidney disease model rats; test: Action to lower blood pressure in kidney disease model rats (tail cuff); type: in vivo, Sprague-Dawley female rats; settings: for Blood Pressure: systolic, average of 8 rats, 20 mg/kg with drinking water, two days after administration, control 210
# Method: (§4) The compounds of the present invention and the reference substance were administered with drinking water to kidney disease model rats, and the action of lowering the blood pressure was observed. The kidney disease model rats were prepared by a ligature of branches of renal artery in accordance with a conventional method. Namely, the left hilum renalis of Sprague-Dawley female rats was exposed under anesthesia, and one of four secondary branches of the renal artery was left unligated, while the remaining three branches were ligated, respectively. After a week, the hilum renalis (artery, vein, and ureter) of the right kidney were further ligated to thereby prepare rats whose renal function was lowered to approximately 1/8 of the normal function. Each group consisted of eight rats. The drugs to be tested (20 mg/kg) were administered to each administering group, and only water was administered to a control group. Two days after the administration, the systolic blood pressure was measured by the tail cuff method using a blood pressure measuring apparatus (UR5000; Ueda).
# [4] = system: kidney disease model rats; test: Renal function indicatory value in kidney disease model rats; type: in vivo, Sprague-Dawley female rats; settings: 20 mg/kg/day with drinking water, six weeks; for Creatinine clearance: 24 hours urine, control 0.22; for Creatinine / Blood urea nitrogen: serum; for Creatinine: control 2.0; for Blood urea nitrogen: control 100
# Method: as §4, with “The” for “The compounds of the present invention and the reference substance were administered with drinking water to kidney disease model rats, and the action of lowering the blood pressure was observed. The”
# The rats in each group were allowed to freely take up food. […] To the rats in the control group, only water was administered every day. After six weeks, 0.2 ml of blood was collected from the carotid artery of the rats under anesthesia, and centrifuged to obtain serum. Using 25 μl of the serum, the serum creatinine (Scr) was measured by a creatinine analytical instrument (Beckman). Using 10 μl of the serum, the blood urea nitrogen (BUN) was measured by a BUN analytical instrument (Beckman). The creatinine clearance was evaluated as follows:
# After the serum creatinine measurement, rats were placed in urinary metabolic cages for 24 hours to collect urine. A urinary creatine concentration (Ucr) was measured by a creatinine analytical instrument, and a total volume of urination (Uvol) was also measured. The creatinine clearance (CCr) was calculated by the following formula: [formula]
# [5] = system: kidney disease model rats; test: Survival time of kidney diseased animals; type: in vivo, Sprague-Dawley female rats; settings: 20 mg/kg/day with drinking water, observation period eight weeks (upper limit); control 5.0
# Method: as §4
# The kidney disease model rats were prepared as in Example 54. Twenty-two groups (8 rats per group) were prepared in a manner such that there was no major difference between the groups in the serum creatinine value and the blood urea nitrogen value indicating renal function. The rats in each group were allowed to freely take up food. […] To the rats in the control group, only water was administered every day. If kidney diseases are aggravated, the rat will die of uremia. Thus, the survival time was observed as a comprehensive indication of the improvement of the effect on the kidney diseases. The observation period was eight weeks. Thus if all rats survived, the average survival time is eight weeks, and is an upper limit.
# [6] = Oral absorption (amount of compound in rat serum by HPLC, area under curve); type: in vivo, Sprague-Dawley female rats; settings: single dosage 160 mg/kg in water, 0.5 to 24 hours, average of 3 rats
# Method: Twelve-week-old Sprague-Dawley female rats (3 rats per group) were bred for acclimation for a week. Then, the compounds of the present invention and a reference substrate were dissolved in water, and orally administered to the rats in a single dosage (160 mg/kg). After 0.5 hour, 1 hour, 2 hours, 4 hours, 6 hours, 8 hours, and 24 hours, the amounts of each compound (ng) per 1 ml of serum were measured using HPLC. Curves were obtained from the relation between an elapsed time after administration and the amount of the compound in serum at each elapsed time, respectively, and an average of the areas under the curves was calculated.
# As a reference substance, Compound No. 184 disclosed in Japanese Unexamined Patent Publication (Kokai) No. 8-48651 was used. Compound No. 184 corresponds to the compound of the formula (I) wherein R^1 =nBu, A=N, Z=C, R^2 =CO, R^3 =NC4 H8 O, R^4 =H, R^5 =Me, and R^6 =Me.
AUC at 24 h [6] [ng·h/mL],Compound,Number of deaths/number of survivals (ICR female mice),inhibition at 100 µM [1] [%],inhibition at 100 µM [2] [%],Blood Pressure [3] [mmHg],Creatinine clearance [4] [mL/min],Creatinine [4] [mg/dL],Blood urea nitrogen [4] [mg/dL],Average survival time [5] [weeks],"action of lowering the blood pressure ([3]; result in words, in comparison with the control group)"
,"CCCCCCCC(=O)N(Cc1ccc(C(=O)O)cc1)c1cc(C(=O)N2CCN(C)CC2)ccc1N(C)C [Compound No. 14, 3-[[(4-carboxyphenyl)methyl]n-octanamido]-4-dimethylaminobenzoic acid 4'-methylpiperazide]",0/5,0,0,205,0.27,1.7,86,6.3,
,"CCCCC(=O)N(Cc1ccc(C(=O)OC2CNC(C(=O)OCC)C2)cc1)c1cc(C(=O)N2CCOCC2)ccc1N(C)C (stereo not shown) [Compound No. 5, 4-dimethylamino-3-N-[[[[4-(2'-ethoxycarbonylpyrrolidin-4'-yloxy)carbonyl]phenyl]methyl]valeramido]benzoic acid morpholide]",0/5,11,0,200,0.30,1.6,82,6.9,
,"CCCCC(=O)N(Cc1ccc(C(=O)O)cc1)c1cc(C(=O)N2CCN(C)CC2)ccc1N(C)C [Compound No. 10, 3-[[(4-carboxyohenyl)methyl]valeramido]-4-dimethylaminobenzoic acid 4'-methylpiperazide]",0/5,13,0,206,0.32,1.6,81,6.9,
,"CCCCC(=O)N(Cc1ccc(C(=O)OCC(N)C(=O)OCC)cc1)c1cc(C(=O)N2CCOCC2)ccc1N(C)C (stereo not shown) [Compound No. 4, 3-N-[[[[4-(2'-amino-2'-ethoxycarbonyl)ethoxycarbonyl]phenyl]methyl]valeramido]-4-dimethyl aminobenzoic acid morpholide]",0/5,11,0,204,0.37,1.4,72,6.9,
622,"CCCCC(=O)N(Cc1ccc(C(=O)O)cc1)c1cc(C(=O)N2CCOCC2)ccc1N(C)C [reference substance, 3-N-[[(4-carboxyphenyl)methyl]valeramido]-4-dimethylaminobenzoic acid morpholide, reference compound]",,,,,,,,,
,CCCCC(=O)N(Cc1ccc(C(=O)O)cc1)c1cc(C(=O)N(CC)CCN(CC)CC)ccc1C(C)C [Compound No. 17],0/5,4,23,201,0.33,1.5,78,6.9,
,"CCCCc1nc(Cl)c(CO)n1Cc1ccc(-c2ccccc2-c2nn[nH]n2)cc1 [DuP753, reference compound]",,,,130,0.32,1.6,80,6.9,clearly exhibited the action of lowering the blood pressure
,"CCCCC(=O)N(Cc1ccc(C(=O)OCC)cc1)c1cc(C(=O)N2CCN(C)CC2)ccc1C(C)C [Compound No. 16, 3-[[(4-ethoxycarbonylphenyl)methyl]valeramido]-4-i-propylbenzoic acid 4'-methylpiperazide]",0/5,0,0,202,0.33,1.5,78,6.9,

# From patent US5863913A, “Aromatic compound and pharmaceutical composition” (Kureha Chemical Industry Co., Ltd., priority 1996, dated 1999)
